Results from the supplement of paper PMC6045584.
± gives the standard deviation of the averaged measurements.

Key:
[1] = compound: Cc1c(N)nc([C@H](CC(N)=O)NC[C@H](N)C(N)=O)nc1C(=O)N[C@H](C(=O)N[C@H](C)[C@@H](O)[C@H](C)C(=O)N[C@H](C(=O)NCCc1nc(-c2nc(C(=O)NCCC[S+](C)C)cs2)cs1)[C@@H](C)O)[C@@H](OC1OC(CO)C(O)C(O)C1OC1OC(CO)C(O)C(OC(N)=O)C1O)c1cnc[nH]1 [BLEOMYCIN]; experiment: surviving fraction relative to DMSO-only wells; higher = less growth inhibition; conditions: exposure time: 5 days
In short: (§1)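 Inhibitors at 0.5, 1, 5, 10, 50, 100, 500 and 1000 nM were applied continuously for five days to tumour cell lines seeded in log phase at 250–500 cells per well in 384-well plates 24 hours earlier. Viability was measured by CellTiter-Glo luminescence and expressed as surviving fraction relative to the median of DMSO-only wells. Luminescence was taken after 10 minutes at room temperature.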

[2] = compound: CC/C(=C(\c1ccc(O)cc1)c1ccc(OCCN(C)C)cc1)c1ccccc1 [AFIMOXIFENE]; experiment: as above; conditions: exposure time: 5 days
In short: as §1

Test System | surviving fraction ([1]; 0.5 nM) | surviving fraction ([1]; 1 nM) | surviving fraction ([1]; 5 nM) | surviving fraction ([1]; 10 nM) | surviving fraction ([1]; 50 nM) | surviving fraction ([1]; 100 nM) | surviving fraction ([1]; 500 nM) | surviving fraction ([1]; 1000 nM) | surviving fraction ([2]; 0.5 nM) | surviving fraction ([2]; 1 nM) | surviving fraction ([2]; 5 nM) | surviving fraction ([2]; 10 nM) | surviving fraction ([2]; 50 nM) | surviving fraction ([2]; 100 nM) | surviving fraction ([2]; 500 nM) | surviving fraction ([2]; 1000 nM)
22RV1 PROSTATE | 0.962 ± 0.044 | 0.979 ± 0.053 | 0.962 ± 0.029 | 0.887 ± 0.026 | 0.922 ± 0.0089 | 0.886 ± 0.051 | 0.738 ± 0.032 | 0.573 ± 0.088 | 1.06 ± 0.088 | 1.04 ± 0.089 | 1.09 ± 0.054 | 1.09 ± 0.016 | 1.1 ± 0.048 | 1.06 ± 0.08 | 1.13 ± 0.056 | 1.04 ± 0.079
93VU HEADNECK | 0.8 ± 0.006 | 0.83 ± 0.058 | 0.785 ± 0.011 | 0.783 ± 0.015 | 0.764 ± 0.058 | 0.633 ± 0.023 | 0.386 ± 0.025 | 0.327 ± 0.066 | 1.25 ± 0.11 | 1.2 ± 0.11 | 1.34 ± 0.074 | 1.32 ± 0.075 | 1.27 ± 0.053 | 1.2 ± 0.1 | 1.24 ± 0.12 | 1.08 ± 0.068
143B BONE | 0.978 ± 0.023 | 0.98 ± 0.023 | 0.995 ± 0.012 | 1.01 ± 0.042 | 0.946 ± 0.0014 | 0.977 ± 0.0014 | 0.82 ± 0.03 | 0.612 ± 0.028 | – | 1.09 ± 0.041 | 1.15 ± 0.11 | 1.1 ± 0.036 | 1.12 ± 0.035 | 1.1 ± 0.033 | 1.14 ± 0.12 | 1.12 ± 0.15
A549 LUNG | 0.932 ± 0.023 | 0.94 ± 0.032 | 0.956 ± 0.023 | 0.915 ± 0.046 | 1 ± 0.042 | 1.01 ± 0.018 | 0.825 ± 0.019 | 0.593 ± 0.032 | 1.07 ± 0.021 | 1.065 ± 0.0068 | 1.06 ± 0.022 | 1.08 ± 0.013 | 1.05 ± 0.023 | 1.1 ± 0.03 | 1.09 ± 0.022 | 1.11 ± 0.032
ASKA SYNOVIAL | 0.897 ± 0.1 | 0.895 ± 0.046 | 0.94 ± 0.096 | 0.931 ± 0.028 | 0.811 ± 0.027 | 0.689 ± 0.026 | 0.427 ± 0.029 | 0.343 ± 0.015 | 1.11 ± 0.056 | 1.18 ± 0.097 | 1.18 ± 0.096 | 1.23 ± 0.031 | 1.18 ± 0.029 | 1.17 ± 0.069 | 1.04 ± 0.1 | 1.14 ± 0.064
BT20 BREAST | 0.766 ± 0.062 | 0.742 ± 0.02 | 0.718 ± 0.045 | 0.768 ± 0.06 | 0.849 ± 0.071 | 0.688 ± 0.14 | 0.48 ± 0.087 | 0.353 ± 0.042 | 1.32 ± 0.11 | 1.27 ± 0.07 | 1.24 ± 0.065 | 1.3 ± 0.096 | 1.19 ± 0.086 | 1.28 ± 0.037 | 1.7 ± 0.076 | 1.9 ± 0.13
BT549 BREAST | 0.82 ± 0.091 | 0.818 ± 0.16 | 0.637 ± 0.1 | 0.599 ± 0.11 | 0.421 ± 0.053 | 0.304 ± 0.053 | 0.121 ± 0.011 | 0.122 ± 0.048 | 0.924 ± 0.072 | 1.01 ± 0.1 | 1.01 ± 0.12 | 0.926 ± 0.082 | 0.93 ± 0.046 | 1.04 ± 0.013 | 1.07 ± 0.14 | 0.865 ± 0.052
C33A CERVIX | 0.925 ± 0.11 | 0.98 ± 0.039 | 0.984 ± 0.13 | 0.827 ± 0.062 | 0.435 ± 0.014 | 0.334 ± 0.02 | 0.163 ± 0.015 | 0.124 ± 0.01 | 1.06 ± 0.065 | 1.07 ± 0.062 | 1.06 ± 0.15 | 1.1 ± 0.047 | 1.14 ± 0.083 | 1.21 ± 0.029 | 1.22 ± 0.12 | 1.34 ± 0.069
CADOES1 SOFT TISSUE | 0.943 ± 0.079 | 0.967 ± 0.089 | 0.789 ± 0.12 | 0.776 ± 0.067 | 0.683 ± 0.051 | 0.503 ± 0.14 | 0.285 ± 0.019 | 0.116 ± 0.017 | 1.04 ± 0.054 | 0.998 ± 0.092 | 0.842 ± 0.12 | 0.986 ± 0.066 | 1.07 ± 0.064 | 0.978 ± 0.067 | 1.14 ± 0.042 | 0.967 ± 0.087
CAL51 BREAST | 0.911 ± 0.036 | 0.893 ± 0.052 | 0.904 ± 0.018 | 0.884 ± 0.014 | 0.729 ± 0.043 | 0.621 ± 0.037 | 0.273 ± 0.016 | 0.17 ± 0.011 | 0.988 ± 0.042 | 0.966 ± 0.054 | 1.05 ± 0.1 | 0.984 ± 0.029 | 1.04 ± 0.046 | 1.05 ± 0.028 | 1.08 ± 0.036 | 0.969 ± 0.028
CAL72 BONE | 1.03 ± 0.032 | 1.02 ± 0.028 | 1 ± 0.044 | 1 ± 0.05 | 1.04 ± 0.04 | 1.01 ± 0.037 | 0.694 ± 0.066 | 0.556 ± 0.013 | 1.1 ± 0.045 | 1.08 ± 0.069 | 1.11 ± 0.037 | 1.12 ± 0.034 | 1.14 ± 0.082 | 1.13 ± 0.07 | 0.967 ± 0.17 | 0.832 ± 0.21
CAL120 BREAST | 0.901 ± 0.028 | 0.926 ± 0.022 | 0.903 ± 0.013 | 0.9 ± 0.023 | 0.819 ± 0.023 | 0.767 ± 0.021 | 0.546 ± 0.027 | 0.399 ± 0.0084 | 1 ± 0.031 | 0.972 ± 0.017 | 1.02 ± 0.074 | 1 ± 0.044 | 1.04 ± 0.041 | 0.994 ± 0.045 | 0.999 ± 0.031 | 0.948 ± 0.027
CASKI CERVIX | 0.763 ± 0.063 | 0.767 ± 0.057 | 0.7 ± 0.051 | 0.636 ± 0.088 | 0.691 ± 0.023 | 0.612 ± 0.051 | 0.229 ± 0.018 | 0.141 ± 0.0035 | 0.882 ± 0.064 | 0.93 ± 0.023 | 0.989 ± 0.046 | 0.977 ± 0.03 | 1.1 ± 0.071 | 1.05 ± 0.017 | 1.01 ± 0.043 | 0.9003 ± 0.0032
CHLA90 AUTONOMIC GANGLIA | 0.941 ± 0.057 | 0.925 ± 0.035 | 0.906 ± 0.067 | 0.868 ± 0.025 | 0.864 ± 0.039 | 0.865 ± 0.021 | 0.827 ± 0.018 | 0.796 ± 0.032 | 0.969 ± 0.013 | 0.966 ± 0.061 | 0.985 ± 0.077 | 0.98 ± 0.039 | – | 1.16 ± 0.078 | 1.09 ± 0.088 | 1.05 ± 0.11
CME SYNOVIAL | 0.718 ± 0.14 | 0.749 ± 0.16 | 0.742 ± 0.12 | 0.513 ± 0.081 | 0.265 ± 0.021 | 0.293 ± 0.036 | 0.211 ± 0.0078 | 0.203 ± 0.0091 | 1.26 ± 0.1 | 1.31 ± 0.15 | 1.42 ± 0.13 | 1.46 ± 0.13 | 1.41 ± 0.13 | 1.43 ± 0.1 | 1.28 ± 0.085 | 1.4 ± 0.053
COLO320DM LARGE INTESTINE | 1.09 ± 0.042 | 0.972 ± 0.025 | 1.03 ± 0.058 | 1.04 ± 0.099 | 1.15 ± 0.22 | 0.89 ± 0.052 | 0.868 ± 0.057 | 0.675 ± 0.024 | 1.14 ± 0.071 | 1.05 ± 0.08 | 1.05 ± 0.011 | 1.11 ± 0.045 | 1.17 ± 0.079 | 1.18 ± 0.056 | 1.16 ± 0.05 | 1.13 ± 0.018
DU4475 BREAST | 0.675 ± 0.13 | 0.792 ± 0.17 | 0.774 ± 0.2 | 0.77 ± 0.075 | 0.742 ± 0.13 | 0.62 ± 0.1 | 0.49 ± 0.11 | 0.378 ± 0.13 | 0.958 ± 0.1 | 0.963 ± 0.1 | 0.964 ± 0.053 | 0.903 ± 0.057 | 0.825 ± 0.017 | 0.717 ± 0.031 | 0.872 ± 0.17 | 0.651 ± 0.11
H23 LUNG | 0.955 ± 0.013 | 0.954 ± 0.032 | 0.886 ± 0.057 | 0.763 ± 0.028 | 0.509 ± 0.026 | 0.338 ± 0.0076 | 0.193 ± 0.014 | 0.118 ± 0.011 | 1.06 ± 0.045 | 1.05 ± 0.026 | 1.07 ± 0.05 | 1.03 ± 0.016 | 1.07 ± 0.023 | 1.09 ± 0.094 | 1.07 ± 0.08 | 1.06 ± 0.11
HCC78 LUNG | 0.839 ± 0.12 | 0.932 ± 0.32 | 0.892 ± 0.2 | 0.774 ± 0.39 | 0.376 ± 0.14 | 0.499 ± 0.13 | 0.202 ± 0.075 | 0.0983 ± 0.032 | 0.893 ± 0.16 | 0.908 ± 0.17 | 0.902 ± 0.39 | 1.05 ± 0.19 | – | 1.13 ± 0.077 | 1.29 ± 0.2 | 1.08 ± 0.094
HCC202 BREAST | 1.13 ± 0.17 | 1.18 ± 0.095 | 1.09 ± 0.49 | 1.02 ± 0.14 | 1.1 ± 0.11 | 0.992 ± 0.17 | 0.862 ± 0.25 | 0.738 ± 0.1 | 1.15 ± 0.4 | 1.2 ± 0.061 | 1.53 ± 0.67 | 1.19 ± 0.14 | 1.03 ± 0.083 | 1.17 ± 0.17 | 0.881 ± 0.29 | 1.13 ± 0.51
